Measurements from patent publication US4997850A, “Treating agent for osteroarthritis” (Kureha Kagaku Kogyo Kabushiki Kaisha, priority 1989, dated 1991).

What was measured:
granuloma proliferation = details: cited from earlier work
[1] = in vivo; cited from earlier work
[2] = system: IL-1 release from cultured cartilage cells; assay: Inhibition of IL-1 release from cultured cartilage cells; type: cell-based, rabbit; details: 3.3 μM; TPA and A 23187 stimulation, 24 hours
Experimental: Cartilages were aseptically taken out from knee and shoulder joints of young rabbit, treated with a Ham medium containing 0.2% collagenase and separated each other into single cells. After washed two times with a Ham medium containing 10% FBS, the cells were dispersed into the Ham medium containing 10% FBS at a concentration of 10^5 cells/ml. […] After 24 hours of cultivation, IL-1 released into each of the supernatants was measured by a bioassay applying an incorporated amount of ^3 H-thymidine (^3 H-TdR) as an index. […] In the Figure, "Intact" means a case TPA and the ionophore were not added and accordingly no stimulation of IL-1 release was given.

[3] = system: IL-1 release from human monocyte; assay: Inhibition of IL-1 (IL-1α and IL-1β) release from human monocyte; type: cell-based; details: Homo sapiens, Monocyte, read-out: concentration at which the release of IL-1 is significantly inhibited; LPS 10 μg/ml, 42 hours
Experimental: Monocyte were isolated from human venous blood by density-gradient centrifugation using a Ficoll-paque solution and obtained the cells having a purity of not less than 95% by purifying with a monocyte-separating plate. After dispersing the cells in a medium, RPMI 1640, containing 10% of FBS, the monocyte were inoculated in a culture dish in a ratio of 10^6 cells/3 ml/well and cultured under an atmosphere containing 5% CO2 at 37° C. for 30 minutes. Then, each 15 μl of DMSO solution of one of ACP, PAL and PAC was added to each well (a final DMSO concentration of 0.5%) and 30 minutes later a lipopolysaccharide (hereinafter referred to as "LPS"), a substance to stimulate IL-1 production, was added at a final LPS concentration of 10 μg/ml and they were cultured for 42 hours. Then, the reacted culture medium was recovered and accompanied cells with the medium were separated by centrifugation and obtained the supernatant free of cell. IL-1α and IL-1β released from the cells were measured by ELISA method in the same manner as in item (i) above.

[4] = system: proteoglycan (PG) release under IL-1α; assay: Proteoglycan (PG) release from prelabelled cultured cartilage matrix with addition of IL-1α; type: cell-based; details: 20 units of IL-1α
Experimental: Further, to a cultured cartilage matrix, in which PG is prelabelled in advance with 1 μCi of Na2^35 SO4, 20 units of IL-1α was added to each group including control group and 10 μM of PAL, 100 μM of PAL or 10 μM of ACP was added to each test group and studied the effect of each compound to the PG release from the cells.

[5] = system: IL-1β production in human synovial cells; assay: Inhibition of IL-1β production in human synovial cells; type: cell-based; details: TPA and A 23187 stimulation, 40 hours
Experimental: (§1) Human synovial membrane obtained at an operation was treated with collagenase to obtain synovial cells, which were subcultured several times and inoculated on a 12-well culture dish. On reaching to confluence, the cells were provided to the test described below. The synovial cells produce IL-1 but release only a little amount and accordingly are appropriate cells to study an inhibition or an acceleration of IL-1 intracellular production.
(§2) Each DMSO (dimethylsulfoxide) solution containing one of ACP, PAL and PAC separately in a concentration of 400 times that of the final test and DMSO solution not containing any of the compound as a control, were diluted to 40 times in its volume with a medium containing fetal bovine serum (hereinafter referred to as "FBS") [Ham Medium]. 100 μl of the diluted solution was added to each well and further, 800 μl of the medium [Ham] was added to each well. […] The concentration of TPA and the ionophore in the medium were adjusted so that their final concentration in the well became 0.1 μg/ml and 0.2 μg/ml, respectively and a production of IL-1 was stimulated. Final volume of the liquid (medium) per well was 1 ml/well. After 40 hours of culture, liquid portion was removed from each well and 1 ml of a Ham medium was added to the remaining cells in each well. Freeze-thawing was repeated on the medium containing the cells several times to destroy all the cells in the medium and supernatants containing intracellular substances were obtained by centrifugation. IL-1α and IL-1β in the supernatant were determined by ELISA method using a prescribed enzyme-antibody-complex (manufactured by OHTSUKA SEIYAKU, Co., Ltd.) as intracellular IL-1s. [Refer to ENSHO, vol.

[6] = Acute toxicity (LD50) of PAL in female Jcl:ICR mice; details: mouse, in vivo
Experimental: For oral administration, a suspension of PAL dispersed in an aqueous solution of 0.2% CMC was prepared (a part of PAL was dissolved in the solution) and administered to the animals via a stomach sonde. For intraperitoneal administration, a suspension of PAL dispersed in an aqueous physiological saline solution was prepared (a part of PAL was dissolved in the solution) and injected to the animals with a syringe.

[7] = system: IL-1α production in human synovial cells; assay: Inhibition of IL-1α production in human synovial cells; type: cell-based; details: TPA and A 23187 stimulation, 40 hours
Experimental: as §1, §2

leukocyte migration = details: cited from earlier work
[8] = system: proteoglycan (PG) in cultured cartilage cells; assay: Synthesis, release and remaining amount of proteoglycan (PG) in cultured cartilage cells; type: cell-based, rat
Experimental: Costal cartilage was aseptically taken out from male SD rats of 4 weeks age, enzymatically treated to separate it into single cells, then inoculated into a 12-well culture dish and cultured under an atmosphere containing 5% CO2 at 37° C. After the chondrocytes had been grown to confluence, 1 to 10 μM of PAL or 10 to 100 μM of PAC was added and three hours later, 2 μCi of Na2^35 SO4 was further added to each well. Twenty four hours later, the synthesis amount in, release amount from and remaining amount of PG in the matrix were determined using amount of ^35 S as an index. […] In the Figures, the PG release in the control was defined as 100%. […] In FIGS. 4(a), 4(b) and 4(c), the released amount of PG means the amount representing the PG degraded in and released from cartilage matrixes, which was calculated on a basis of ^35 S in the culture medium. The remaining amount of PG means the PG not degraded in the matrixes and was also calculated in the same way as above. Sum of the released and the remaining amounts of PG is thought to be a synthesized PG.

adjuvant arthritis = details: in vivo; cited from earlier work
[9] = Acute toxicity (LD50) of ACP in mice; type: in vivo; details: for LD50 at 168 h: in vivo, male; for LD50: female, 10080 min
Experimental: (§3) For oral administration, a suspension of ACP dispersed in an aqueous solution of 0.5% methylcellulose and 0.4% Tween 80 (nonionic surfactant, manufactured by TOKYO KASEI, Co., Ltd.) was prepared and administered to the animals via a stomach sonde. For subcutaneous administration, a suspension of ACP dispersed in an aqueous physiological saline solution containing 0.5% of carboxymethyl cellulose sodium (hereinafter referred to as "CMC") was prepared and injected to the animals with a syringe.

[10] = Acute toxicity (LD50) of ACP in rats; type: in vivo; details: for LD50 at 168 h: in vivo, male; for LD50: female, 10080 min
Experimental: as §3

[11] = system: proteoglycan (PG) release under IL-1α; assay: Proteoglycan (PG) release from prelabelled cultured cartilage matrix with addition of IL-1α; type: cell-based; details: 20 units of IL-1α, compared to control without IL-1; prelabelled 35S as 100%

O=Cc1ccc(O)c(O)c1 [PAL, 3,4-dihydroxybenzaldehyde]
suppressing activity of granuloma proliferation (granuloma proliferation): suppressing activity | toxicity to mammals including human [1]: very low toxic | inhibition of IL-1 release from cartilage cells [2]: inhibit the release of IL-1 | minimal effective concentration [3]: 0.33 µM | inhibition of PG release under IL-1α ([4]; PAL 10 μM and 100 μM): inhibited the release amount proportionally to the amount added | inhibiting activity of IL-1β production ([5]; 33 μM): strong inhibiting activity | LD50 at 168 h ([6]; ip, intraperitoneal): 404 mg/kg | LD50 at 168 h ([6]; oral): 1500 mg/kg | inhibiting activity of IL-1α production ([7]; 33 μM): strong inhibiting activity | suppressing activity of leukocyte migration (leukocyte migration): suppressing activity | effect on PG synthesis ([8]; PAL 1 to 10 μM, PAC 10 to 100 μM, 24 hours): no effect | inhibition of PG release ([8]; PAL 1 to 10 μM, PAC 10 to 100 μM, control release 100%): exhibited inhibiting activities on the PG release | remaining amount of PG in the matrix ([8]; PAL between 1 and 3.3 μM, PAC between 10 and 100 μM): increased in proportion to the adding amount | suppressing activity of adjuvant arthritis (adjuvant arthritis): suppressing activity

CC(=O)Oc1ccc(C(OC(C)=O)OC(C)=O)cc1OC(C)=O [ACP, 3,4-diacetoxybenzylidene diacetate]
suppressing activity of granuloma proliferation (granuloma proliferation): suppressing activity | toxicity to mammals including human [1]: very low toxic | inhibition of IL-1 release from cartilage cells [2]: inhibit the release of IL-1 | LD50 at 168 h ([9]; sc, subcutaneous, Jcl:ICR mouse): > 4000 mg/kg | LD50 at 168 h ([9]; oral, CD-1 mouse): > 5000 mg/kg | LD50 ([9]; oral, CD-1 mouse): > 5000 mg/kg | LD50 ([9]; subcutaneous, Jcl:ICR mouse): > 4000 mg/kg | minimal effective concentration [3]: 0.67 µM | inhibition of PG release under IL-1α ([4]; 10 μM): inhibited the release amount | inhibiting activity of IL-1β production ([5]; 10 μM): strong inhibiting activity | inhibiting activity of IL-1α production ([7]; 10 μM): strong inhibiting activity | LD50 at 168 h ([10]; sc, subcutaneous, Jcl:Wistar rat): > 4000 mg/kg | LD50 at 168 h ([10]; oral, Sprague-Dawley rat): > 5000 mg/kg | LD50 ([10]; oral, Sprague-Dawley rat): > 5000 mg/kg | LD50 ([10]; subcutaneous, Jcl:Wistar rat): > 4000 mg/kg | suppressing activity of leukocyte migration (leukocyte migration): suppressing activity | effect on PG synthesis, release and remaining amount (ACP) ([8]; compared with PAL and PAC, concentration not given): effect having similar tendency | suppressing activity of adjuvant arthritis (adjuvant arthritis): suppressing activity

B1: IL-1α: interleukin 1 alpha, added to cultured cartilage matrix to increase proteoglycan release (protein, UniProt P01583 113-271, looked up)
Interleukin-1 alpha: SAPFSFLSNVKYNFMRIIKYEFILNDALNQSIIRANDQYLTAAALHNLDEAVKFDMGAYKSSKDDAKITVILRISKTQLYVTAQDEDQPVLLKEMPEIPKTITGSETNLLFFWETHGTKNYFTSVAHPNLFIATKQDYWVCLAGGPPSITDFQILENQA
increase of PG release by IL-1α [11]: about 20%
